Tested on: primary murine skeletal myocytes
Assay: TAG accumulation in primary murine skeletal myocytes
Format: cell-based
Conditions: Mus musculus; primary murine skeletal myocytes; read-out: Activity Score (IC50), triacylglyceride (TAG) accumulation

| Structure (SMILES) | IC50 [nM] |
| --- | --- |
| O=C(Nc1nc(-c2ccccc2Cl)cs1)c1ccc(OCC(=O)N2CCOCC2)cc1 [Cpd. 48, N-(4-(2-chlorophenyl)thiazol-2-yl)-4-(2-morpholino-2-oxoethoxy)benzamide] | < 1000 |
| O=C(Nc1nc(-c2ccccc2F)cs1)c1ccc(OCC(=O)N2CCOCC2)cc1 [Cpd. 49, N-(4-(2-fluorophenyl)thiazol-2-yl)-4-(2-morpholino-2-oxoethoxy)benzamide] | < 1000 |
| COc1ccccc1-c1csc(NC(=O)c2ccc(OCC(=O)N3CCOCC3)cc2)n1 [Cpd. 50, N-(4-(2-methoxyphenyl)thiazol-2-yl)-4-(2-morpholino-2-oxoethoxy)benzamide] | < 1000 |
| Cc1cccc(-c2csc(NC(=O)c3ccc(OCC(=O)N4CCOCC4)cc3)n2)c1 [Cpd. 51, 4-(2-morpholino-2-oxoethoxy)-N-(4-(m-tolyl)thiazol-2-yl)benzamide] | < 1000 |
| O=C(Nc1nc(-c2cccc(Cl)c2)cs1)c1ccc(OCC(=O)N2CCOCC2)cc1 [Cpd. 52, N-(4-(3-chlorophenyl)thiazol-2-yl)-4-(2-morpholino-2-oxoethoxy)benzamide] | < 1000 |
| O=C(Nc1nc(-c2cccc(F)c2)cs1)c1ccc(OCC(=O)N2CCOCC2)cc1 [Cpd. 53, N-(4-(3-fluorophenyl)thiazol-2-yl)-4-(2-morpholino-2-oxoethoxy)benzamide] | < 1000 |
| COc1ccc(-c2csc(NC(=O)c3ccc(OCC(=O)N4CCOCC4)cc3)n2)c(Cl)c1 [Cpd. 54, N-(4-(2-chloro-4-methoxyphenyl)thiazol-2-yl)-4-(2-morpholino-2-oxoethoxy)benzamide] | < 1000 |
| CC(C)Oc1ccc(-c2csc(NC(=O)c3ccc(OCC(=O)N4CCOCC4)cc3)n2)c(Cl)c1 [Cpd. 55, N-(4-(2-chloro-4-isopropoxyphenyl)thiazol-2-yl)-4-(2-morpholino-2-oxoethoxy)benzamide] | < 1000 |
| COc1ccc(-c2csc(NC(=O)c3ccc(OCC(=O)N4CCOCC4)cc3)n2)c(F)c1 [Cpd. 56, N-(4-(2-fluoro-4-methoxyphenyl)thiazol-2-yl)-4-(2-morpholino-2-oxoethoxy)benzamide] | < 1000 |
| COc1ccc(-c2csc(NC(=O)c3ccc(OCC(N)=O)cc3)n2)c(Cl)c1 [Cpd. 57, 4-(2-amino-2-oxoethoxy)-N-(4-(2-chloro-4-methoxyphenyl)thiazol-2-yl)benzamide] | 1000 to 10000 |
| CNC(=O)COc1ccc(C(=O)Nc2nc(-c3ccc(OC)cc3Cl)cs2)cc1 [Cpd. 58, N-(4-(2-chloro-4-methoxyphenyl)thiazol-2-yl)-4-(2-(methylamino)-2-oxoethoxy)benzamide] | < 1000 |
| CCNC(=O)COc1ccc(C(=O)Nc2nc(-c3ccc(OC)cc3Cl)cs2)cc1 [Cpd. 59, N-(4-(2-chloro-4-methoxyphenyl)thiazol-2-yl)-4-(2-(ethylamino)-2-oxoethoxy)benzamide] | < 1000 |

Now from value to molecule:

| IC50 [nM] | Structure (SMILES) |
| --- | --- |
| < 1000 | COCCOc1ccc(-c2csc(NC(=O)c3ccc(OCC(=O)N4CCOCC4)cc3)n2)cc1 [Cpd. 43, N-(4-(4-(2-methoxyethoxy)phenyl)thiazol-2-yl)-4-(2-morpholino-2-oxoethoxy)benzamide] |
| < 1000 | CCc1ccc(-c2csc(NC(=O)c3ccc(OCC(=O)N4CCOCC4)cc3)n2)cc1 [Cpd. 44, N-(4-(4-ethylphenyl)thiazol-2-yl)-4-(2-morpholino-2-oxoethoxy)benzamide] |
| < 1000 | CC(C)c1ccc(-c2csc(NC(=O)c3ccc(OCC(=O)N4CCOCC4)cc3)n2)cc1 [Cpd. 45, N-(4-(4-isopropylphenyl)thiazol-2-yl)-4-(2-morpholino-2-oxoethoxy)benzamide] |
| < 1000 | O=C(Nc1nc(-c2ccc(F)cc2)cs1)c1ccc(OCC(=O)N2CCOCC2)cc1 [Cpd. 46, N-(4-(4-fluorophenyl)thiazol-2-yl)-4-(2-morpholino-2-oxoethoxy)benzamide] |
| < 1000 | Cc1ccccc1-c1csc(NC(=O)c2ccc(OCC(=O)N3CCOCC3)cc2)n1 [Cpd. 47, 4-(2-morpholino-2-oxoethoxy)-N-(4-(o-tolyl)thiazol-2-yl)benzamide] |

Source: patent publication US11028061B2, “Modulators of myocyte lipid accumulation and insulin resistance and methods of use thereof” (Sanford Burnham Prebys Medical Discovery Institute, priority 2015, dated 2021)
